Reference: US7569729B2, “Stable atomoxetine hydrochloride, a process for the preparation thereof, and an analytical control of its stability” (Teva Pharmaceutical Fine Chemicals S.R.L., priority 2005, dated 2009)
“And” between values parts separate entries of the source, which are not always exact repeats. Identical values can stand only once. Counter-ions that a name gives are not always drawn.

How the values were obtained:
[1] = Stressed thermal stability test (70° C. for 58 hours), impurities by HPLC; format: physicochemical
Excerpt: However, the presence of free HCl in Atomoxetine Hydrochloride, which is easily detected by a pH test of a solution of Atomoxetine Hydrochloride in water, results in significant degradation of the Atomoxetine Hydrochloride, as described below.

[2] = Determination of pH of Atomoxetine Hydrochloride samples in aqueous solution; format: physicochemical; settings: for pH of 2% (w/V) aqueous solution / aqueous pH test results: Hydrochloride; for pH (2% in H2O): wet samples after filtration from crystallization medium; for aqueous pH test results: samples of the 40° C. stability test
Method: The present invention provides a method for analyzing Atomoxetine Hydrochloride stability, comprising determining the pH of a sample of Atomoxetine Hydrochloride in aqueous solution. The process comprises dissolving Atomoxetine Hydrochloride in water at a temperature of about 20° C. to about 30° C. to obtain a solution and measuring the pH. Preferably, the dissolution of Atomoxetine Hydrochloride is accelerated by using a sonication. Preferably, the pH is measured with a glass electrode.
A 2 g sample of Atomoxetine Hydrochloride is dissolved in 100 ml of deionized water at temperature between about 20° C. and about 30° C. with sonication if required to obtain a complete solution. The pH is measured with a glass electrode at temperature of between about 20° C. and about 30° C.

[3] = as above; format: physicochemical; settings: Example 2, after first water slurry and wash, 200 mg in 10 ml water
[4] = Drying wet Atomoxetine Hydrochloride in a vacuum oven at 70° C., impurities by HPLC; format: physicochemical; settings: HPLC results, weight percent
Excerpt: These experimental results are in agreement with the previously described stability data.

[5] = Stability test (40° C., five days), impurities by HPLC; format: physicochemical
Method: At lower temperatures, e.g., 40° C., the stability of Atomoxetine Hydrochloride samples, having a water solution pH test of less than 4 are compromised, while Atomoxetine Hydrochloride samples, having a water solution pH test of greater than 4, are stable.

[6] = Stability test (40° C., 75% RH), impurities by HPLC; format: physicochemical
[7] = Contact of dry Atomoxetine Hydrochloride with HCl gas flow at room temperature, impurities by HPLC
[8] = End of test time, Hydrochloride
[9] = After drying in vacuum oven at 70° C.
[10] = Before contact with HCl gas flow
[11] = After contact with HCl gas flow, room temperature

Row | Impurity (a) (HPLC A %) [1, 8] | Impurity (b) (HPLC A %) [1, 8] | Impurity (c) (HPLC A %) [1, 8] | Impurity (a) (HPLC A %) ([1]; Time zero) | Impurity (b) (HPLC A %) ([1]; Time zero) | Impurity (c) (HPLC A %) ([1]; Time zero) | pH of 2% (w/V) aqueous solution [2] | aqueous pH test results [2] | Impurity (a) (HPLC A %) [5, 8] | Impurity (b) (HPLC A %) [5, 8] | Impurity (c) (HPLC A %) [5, 8] | Impurity (b) (HPLC A %) ([5]; Time zero) | Impurity (a) (HPLC A %) ([5]; Time zero, Hydrochloride) | Impurity (c) (HPLC A %) ([5]; Time zero, Hydrochloride) | SMILES | further results
1 |  |  |  |  |  |  |  | 2.4 | 0.633% HPLC A % | 0.0482% HPLC A % | 0.689% HPLC A % | not detected | 0.014% HPLC A % | 0.018% HPLC A % | CNCCC(Oc1ccccc1C)c1ccccc1 (stereo not shown) [Sample 7, Atomoxetine Hydrochloride] | 
2 |  |  |  |  |  |  |  | 4.4 | not detected | not detected | not detected | not detected | not detected | not detected | CNCCC(Oc1ccccc1C)c1ccccc1 (stereo not shown) [Sample 8, Atomoxetine Hydrochloride] | 
3 |  |  |  |  |  |  |  | 4.8 | not detected | not detected | not detected | not detected | not detected | not detected | CNCCC(Oc1ccccc1C)c1ccccc1 (stereo not shown) [Sample 9, Atomoxetine Hydrochloride] | 
4 |  |  |  |  |  |  |  | 6.1 | not detected | not detected | not detected | not detected | not detected | not detected | CNCCC(Oc1ccccc1C)c1ccccc1 (stereo not shown) [Sample 10, Atomoxetine Hydrochloride] | 

Continued, compound first:

Row | SMILES | Impurity (a) (HPLC A %) [1, 8] | Impurity (b) (HPLC A %) [1, 8] | Impurity (c) (HPLC A %) [1, 8] | Impurity (a) (HPLC A %) ([1]; Time zero) | Impurity (b) (HPLC A %) ([1]; Time zero) | Impurity (c) (HPLC A %) ([1]; Time zero) | pH of 2% (w/V) aqueous solution [2] | aqueous pH test results [2] | Impurity (a) (HPLC A %) [5, 8] | Impurity (b) (HPLC A %) [5, 8] | Impurity (c) (HPLC A %) [5, 8] | Impurity (b) (HPLC A %) ([5]; Time zero) | Impurity (a) (HPLC A %) ([5]; Time zero, Hydrochloride) | Impurity (c) (HPLC A %) ([5]; Time zero, Hydrochloride) | further results
5 | CNCCC(Oc1ccccc1C)c1ccccc1 (single isomer, unassigned) [Sample 1, Atomoxetine Hydrochloride] | 10.5% HPLC A % | 14.2% HPLC A % | 26.2% HPLC A % | not detected | not detected | not detected | 2.4 |  |  |  |  |  |  |  | 
6 | CNCCC(Oc1ccccc1C)c1ccccc1 (single isomer, unassigned) [Sample 2, Atomoxetine Hydrochloride] | not detected | not detected | not detected | not detected | not detected | not detected | 5.8 |  |  |  |  |  |  |  | 
7 | CNCCC(Oc1ccccc1C)c1ccccc1 (single isomer, unassigned) [Sample 3, Atomoxetine Hydrochloride] | not detected | not detected | not detected | not detected | not detected | not detected | 6.0 |  |  |  |  |  |  |  | 
8 | CNCCC(Oc1ccccc1C)c1ccccc1 (single isomer, unassigned) [Sample 4, Atomoxetine Hydrochloride] | not detected | not detected | not detected | not detected | not detected | not detected | 5.9 |  |  |  |  |  |  |  | 
9 | CNCC[C@@H](Oc1ccccc1C)c1ccccc1 [Atomoxetine Hydrochloride, (R)(−)-n-methyl-3-(2-methylphenoxy)-3-phenylpropylamine] |  |  |  |  |  |  |  |  |  |  |  |  |  |  | pH [3]: 4.4; pH ([2]; Example 1, wet solids of two separate preparations, 2 g in 100 ml water): 2.39 and 2.40; pH ([2]; Example 2, after second water slurry and wash, wet, 2 g in 100 ml water): 5.9; pH ([2]; Example 3, after acetone washing and drying, about 2 percent w/V in water): 4.6
10 | CNCCC(Oc1ccccc1C)c1ccccc1 (stereo not shown) [Sample 5, Atomoxetine Hydrochloride] |  |  |  |  |  |  |  |  |  |  |  |  |  |  | pH (2% in H2O) [2]: 2.4; Impurity (a) [4, 9]: 0.31%; Impurity (b) [4, 9]: 0.04%; Impurity (c) [4, 9]: 0.12%; Impurity (a) ([4]; Before drying): not detected; Impurity (b) ([4]; Before drying): not detected; Impurity (c) ([4]; Before drying): not detected
11 | CNCCC(Oc1ccccc1C)c1ccccc1 (stereo not shown) [Sample 6, Atomoxetine Hydrochloride] |  |  |  |  |  |  |  |  |  |  |  |  |  |  | pH (2% in H2O) [2]: 2.4
12 | CNCCC(Oc1ccccc1C)c1ccccc1 (stereo not shown) [Sample 11, Atomoxetine Hydrochloride] |  |  |  |  |  |  |  |  |  |  |  |  |  |  | Impurity (a) (HPLC A %) ([6]; 1 month): 0.02 HPLC A %; Impurity (b) (HPLC A %) ([6]; 1 month): 0.006 HPLC A %; Impurity (c) (HPLC A %) ([6]; 1 month): not detected; Impurity (a) (HPLC A %) ([6]; 2 months): 0.02 HPLC A %; Impurity (b) (HPLC A %) ([6]; 2 months): 0.007 HPLC A %; Impurity (c) (HPLC A %) ([6]; 2 months): not detected; Impurity (a) (HPLC A %) ([6]; 3 months): 0.02 HPLC A %; Impurity (b) (HPLC A %) ([6]; 3 months): 0.003 HPLC A %; Impurity (c) (HPLC A %) ([6]; 3 months): not detected; Impurity (a) (HPLC A %) ([6]; 6 month): 0.01 HPLC A %; Impurity (b) (HPLC A %) ([6]; 6 month): not detected; Impurity (c) (HPLC A %) ([6]; 6 month): not detected; Impurity (a) (HPLC A %) ([6]; Time zero): 0.01 HPLC A %; Impurity (b) (HPLC A %) ([6]; Time zero): not detected; Impurity (c) (HPLC A %) ([6]; Time zero): not detected
13 | CNCCC(Oc1ccccc1C)c1ccccc1 (stereo not shown) [Sample 12, Atomoxetine Hydrochloride] |  |  |  |  |  |  |  |  |  |  |  |  |  |  | aqueous pH test result [2, 10]: 6.1; aqueous pH test result ([2]; after contact with HCl gas flow): 2.8; Impurity (a) [7, 11]: 0.10% HPLC A %; Impurity (b) [7, 11]: 0.032% HPLC A %; Impurity (c) [7, 11]: 1.54% HPLC A %; Impurity (a) [7, 10]: not detected; Impurity (b) [7, 10]: not detected; Impurity (c) [7, 10]: not detected
